From PubChem BioAssay AID1259407 (Chemical Carcinogenesis Research Information System (CCRIS), 2018)
Active and inactive are the calls of the source. The rule behind the calls is not given here.

System: CCRIS mutagenicity, Ames/micronucleus/aberration tests
Assay: CCRIS mutagenicity studies
[1] = Test System: AMES SALMONELLA TYPHIMURIUM, Strain/Indicator: TA98, Metabolic Activation: NONE, Method: PREINCUBATION
[2] = Test System: AMES SALMONELLA TYPHIMURIUM, Strain/Indicator: TA100, Metabolic Activation: NONE, Method: PREINCUBATION
[3] = Test System: AMES SALMONELLA TYPHIMURIUM, Strain/Indicator: TA100, Metabolic Activation: NONE, Method: STANDARD PLATE
[4] = Test System: AMES SALMONELLA TYPHIMURIUM, Strain/Indicator: TA1535, Metabolic Activation: NONE, Method: STANDARD PLATE
[5] = Test System: AMES SALMONELLA TYPHIMURIUM, Strain/Indicator: TA97, Metabolic Activation: NONE, Method: STANDARD PLATE
[6] = Test System: AMES SALMONELLA TYPHIMURIUM, Strain/Indicator: TA97, Metabolic Activation: RAT, LIVER, S-9, PHENOBARBITAL AND ALPHA-NAPHTHOFLAVONE, Method: STANDARD PLATE
[7] = Test System: AMES SALMONELLA TYPHIMURIUM, Strain/Indicator: TA98, Metabolic Activation: NONE, Method: STANDARD PLATE
[8] = Test System: AMES SALMONELLA TYPHIMURIUM, Strain/Indicator: TA98, Metabolic Activation: RAT, LIVER, S-9, PHENOBARBITAL AND ALPHA-NAPHTHOFLAVONE, Method: STANDARD PLATE
[9] = Test System: AMES SALMONELLA TYPHIMURIUM, Strain/Indicator: TA100, Metabolic Activation: RAT, LIVER, S-9, PHENOBARBITAL AND ALPHA-NAPHTHOFLAVONE, Method: STANDARD PLATE
[10] = Test System: AMES SALMONELLA TYPHIMURIUM, Strain/Indicator: TA1535, Metabolic Activation: RAT, LIVER, S-9, PHENOBARBITAL AND ALPHA-NAPHTHOFLAVONE, Method: STANDARD PLATE

With O=C1NC(=S)NC(=O)C1C(=O)Nc1ccccc1 the mutagenic call (Test System: AMES SALMONELLA TYPHIMURIUM, Strain/Indicator: TA102, Metabolic Activation: NONE, Method: STANDARD PLATE) was “inactive; negative”, the mutagenic call (Test System: CHINESE HAMSTER V-79, Strain/Indicator: V-79 (HPRT)/6-THIOGUANINE, Metabolic Activation: NONE) was “inactive; negative” and the mutagenic call (Test System: MOUSE LYMPHOMA, Strain/Indicator: L5178Y (HPRT)/6-THIOGUANINE, Metabolic Activation: NONE, Method: FLUCTUATION TEST) was “active; positive”. For the same compound, the mutagenic call (Test System: MOUSE LYMPHOMA, Strain/Indicator: L5178Y (TK+/TK-), Metabolic Activation: NONE, Method: FLUCTUATION TEST) was “active; positive”.

CCS(=O)CCSP(=O)(OC)OC (configuration not stated) was tested, and the mutagenic call (Test System: AMES SALMONELLA TYPHIMURIUM, Strain/Indicator: TA97, Metabolic Activation: HAMSTER, LIVER, S-9, AROCLOR 1254 (10%), Method: PREINCUBATION) was “inactive; negative”, the mutagenic call (Test System: AMES SALMONELLA TYPHIMURIUM, Strain/Indicator: TA97, Metabolic Activation: NONE, Method: PREINCUBATION) was “inactive; negative” and the mutagenic call (Test System: AMES SALMONELLA TYPHIMURIUM, Strain/Indicator: TA97, Metabolic Activation: RAT, LIVER, S-9, AROCLOR 1254 (10%), Method: PREINCUBATION) was “inactive; negative”. The mutagenic call (Test System: AMES SALMONELLA TYPHIMURIUM, Strain/Indicator: TA98, Metabolic Activation: HAMSTER, LIVER, S-9, AROCLOR 1254 (10%), Method: PREINCUBATION) was “inactive; negative”, the mutagenic call [1] was “inactive; negative” and the mutagenic call (Test System: AMES SALMONELLA TYPHIMURIUM, Strain/Indicator: TA98, Metabolic Activation: RAT, LIVER, S-9, AROCLOR 1254 (10%), Method: PREINCUBATION) was “inactive; negative”. The mutagenic call (Test System: AMES SALMONELLA TYPHIMURIUM, Strain/Indicator: TA100, Metabolic Activation: HAMSTER, LIVER, S-9, AROCLOR 1254 (10%), Method: PREINCUBATION) was “active; positive”, the mutagenic call [2] was “inactive; negative” and the mutagenic call (Test System: AMES SALMONELLA TYPHIMURIUM, Strain/Indicator: TA100, Metabolic Activation: RAT, LIVER, S-9, AROCLOR 1254 (10%), Method: PREINCUBATION) was “active; positive”. The mutagenic call (Test System: AMES SALMONELLA TYPHIMURIUM, Strain/Indicator: TA1535, Metabolic Activation: HAMSTER, LIVER, S-9, AROCLOR 1254 (10%), Method: PREINCUBATION) was “active; positive”, the mutagenic call (Test System: AMES SALMONELLA TYPHIMURIUM, Strain/Indicator: TA1535, Metabolic Activation: NONE, Method: PREINCUBATION) was “active; positive” and the mutagenic call (Test System: AMES SALMONELLA TYPHIMURIUM, Strain/Indicator: TA1535, Metabolic Activation: RAT, LIVER, S-9, AROCLOR 1254 (10%), Method: PREINCUBATION) was “active; positive”.

In the case of C#CC(OC(=O)NC1CCCCC1)(c1ccccc1)c1ccc(C)c(C)c1 (configuration not stated), the mutagenic call [3] was “active; positive”, the mutagenic call [4] was “active; positive” and the mutagenic call (Test System: UDS HUMAN FIBROBLASTS, Strain/Indicator: THY INCORP (NON-S-PHASE), Metabolic Activation: NONE, Method: AUTORADIOGRAPHY) was “active; positive”.

With Nc1ccc(Cc2cc(O)c(N)c(Cl)c2)cc1Cl the mutagenic call [1] was “inactive; negative” and the mutagenic call [2] was “inactive; negative”.

C/C(O)=C1/C(=O)[C@@H]2[C@H]3c4c[nH]c5cccc(c45)C[C@H]3C(C)(C)N2C1=O was tested, and the mutagenic call [2] was “inactive; negative” and the mutagenic call (Test System: AMES SALMONELLA TYPHIMURIUM, Strain/Indicator: TA100, Metabolic Activation: RAT, LIVER, S-9, PHENOBARBITAL, Method: PREINCUBATION) was “inactive; negative”.

With Cc1c(N=O)cccc1[N+](=O)[O-] the mutagenic call [1] was “inactive; negative”, the mutagenic call (Test System: AMES SALMONELLA TYPHIMURIUM, Strain/Indicator: TA98, Metabolic Activation: RAT, LIVER, S-9, PHENOBARBITAL AND 5,6-BENZOFLAVONE, Method: PREINCUBATION) was “inactive; negative” and the mutagenic call [2] was “inactive; negative”. For the same compound, the mutagenic call (Test System: AMES SALMONELLA TYPHIMURIUM, Strain/Indicator: TA100, Metabolic Activation: RAT, LIVER, S-9, PHENOBARBITAL AND 5,6-BENZOFLAVONE, Method: PREINCUBATION) was “inactive; negative”.

For O=NN(CCCl)C(=O)NC1CCCCC1, the mutagenic call (End Point: IN VITRO CHROMOSOMAL ABERRATIONS, Test System: HUMAN HCT116/3-6 CELLS, Metabolic Activation: NONE) was “active; positive”, the mutagenic call (End Point: IN VITRO CHROMOSOMAL ABERRATIONS, Test System: HUMAN HCT116 CELLS, Metabolic Activation: NONE) was “active; positive” and the mutagenic call (End Point: IN VITRO CHROMOSOMAL ABERRATIONS, Test System: HUMAN MT1 CELLS, Metabolic Activation: NONE) was “active; positive”. The mutagenic call (End Point: IN VITRO CHROMOSOMAL ABERRATIONS, Test System: HUMAN TK6 CELLS, Metabolic Activation: NONE) was “active; positive”, the mutagenic call [5] was “inactive; negative” and the mutagenic call [6] was “inactive; negative”. The mutagenic call [1] was “inactive; negative”, the mutagenic call [7] was “inactive; negative” and the mutagenic call [8] was “inactive; negative”. The mutagenic call (Test System: AMES SALMONELLA TYPHIMURIUM, Strain/Indicator: TA98, Metabolic Activation: S-9, Method: PREINCUBATION) was “inactive; negative”, the mutagenic call [2] was “active; positive” and the mutagenic call [3] was “active; positive”. The mutagenic call [9] was “active; positive”, the mutagenic call (Test System: AMES SALMONELLA TYPHIMURIUM, Strain/Indicator: TA100, Metabolic Activation: S-9, Method: PREINCUBATION) was “active; positive” and the mutagenic call [4] was “active; positive”. For the same compound, the mutagenic call [10] was “active; positive” and the mutagenic call (Test System: CHINESE HAMSTER V-79, Strain/Indicator: V-79/6-THIOGUANINE, Metabolic Activation: NONE, Method: STANDARD PLATE) was “active; positive”.

For O=C1c2c(O)ccc(O)c2C(=O)c2c(NCCNCCO)ccc(NCCNCCO)c21, the mutagenic call [5] was “inactive; negative”, the mutagenic call [6] was “inactive; negative” and the mutagenic call (Test System: AMES SALMONELLA TYPHIMURIUM, Strain/Indicator: TA97A, Metabolic Activation: NONE, Method: STANDARD PLATE) was “inactive; negative”. For the same compound, the mutagenic call [7] was “active; positive”, the mutagenic call [8] was “active; positive” and the mutagenic call [3] was “inactive; negative”. The mutagenic call [9] was “inactive; negative”, the mutagenic call [4] was “inactive; negative” and the mutagenic call [10] was “inactive; negative”. For the same compound, the mutagenic call (Test System: AMES SALMONELLA TYPHIMURIUM, Strain/Indicator: TA1538, Metabolic Activation: NONE, Method: STANDARD PLATE) was “active; positive”, the mutagenic call (Test System: MOUSE LYMPHOMA, Strain/Indicator: L5178Y (TK+/TK-), Metabolic Activation: NONE, Method: SUSPENSION/PLATE) was “active; positive” and the mutagenic call (Test System: MOUSE LYMPHOMA, Strain/Indicator: L5178Y (TK+/TK-), Metabolic Activation: RAT, LIVER, S-9, AROCLOR 1242 AND 1254 (2:1), Method: SUSPENSION/PLATE) was “active; positive”.

For c1ccc2c(c1)-c1cc3ccccc3cc1[C@@H]1N[C@H]21, the mutagenic call [1] was “active; positive”, the mutagenic call [7] was “active; positive” and the mutagenic call [3] was “active; positive”.

With Nc1cc(S(=O)(=O)O)cc2cc(S(=O)(=O)O)c(N=Nc3ccccc3)c(O)c12 the mutagenic call [7] was “inactive; negative”, the mutagenic call (Test System: AMES SALMONELLA TYPHIMURIUM, Strain/Indicator: TA98, Metabolic Activation: RAT LIVER S-9, AROCLOR 1254, Method: STANDARD PLATE) was “inactive; negative” and the mutagenic call [3] was “inactive; negative”. For the same compound, the mutagenic call (Test System: AMES SALMONELLA TYPHIMURIUM, Strain/Indicator: TA100, Metabolic Activation: RAT LIVER S-9, AROCLOR 1254, Method: STANDARD PLATE) was “inactive; negative”.

In the case of C[C@@H]1CC[C@@]2(OC1)O[C@H]1C[C@H]3[C@@H]4CC=C5C[C@@H](O[C@@H]6O[C@H](CO)[C@@H](O)[C@H](O[C@@H]7O[C@H](CO)[C@@H](O)[C@H](O)[C@H]7O)[C@H]6O[C@@H]6O[C@@H](C)[C@H](O)[C@@H](O)[C@H]6O)CC[C@]5(C)[C@H]4CC[C@]3(C)[C@H]1[C@@H]2C, the mutagenic call [7] was “inactive; negative”, the mutagenic call (Test System: AMES SALMONELLA TYPHIMURIUM, Strain/Indicator: TA98, Metabolic Activation: RAT, LIVER, S-9, PHENOBARBITAL, Method: STANDARD PLATE) was “inactive; negative” and the mutagenic call [3] was “inactive; negative”. The mutagenic call (Test System: AMES SALMONELLA TYPHIMURIUM, Strain/Indicator: TA100, Metabolic Activation: RAT, LIVER, S-9, PHENOBARBITAL, Method: STANDARD PLATE) was “inactive; negative”.
